Test results from patent US20220288277A1, “SURFACE COATINGS AND IMPLANTABLE DEVICES COMPRISING DIMERIC STEROID PRODRUGS, AND USES THEREOF” (Ripple Therapeutics Corporation, priority 2019, published 2022).
Blank lines part the entries; values can stand above or below the compound they belong to.

Key:
[1] = Ethylene oxide (ETO) gas sterilization of coated fibrous Dacron meshes, purity and drug release pre- and post-ETO; assay type: physicochemical; settings: ETO gas at 55° C.
Method: Compound 1 coated onto fibrous Dacron meshes were sterilized by ethylene oxide (ETO) gas at a temperature of 55° C. […] Drug release was carried out in PBS at 37 C.

[2] = Drug release from injectable cylinders in the subcutaneous tissue of rats; assay type: in vivo, male Sprague Dawley rats; settings: cylinders 23G-32G, 2 mm, subcutaneous with suture, 7 and 28 days
Method: Cylinders of Compound 1 in various diameters (23G-32G) and 2 mm in length were processed as described in Example 1 and were loaded into needles with a piece of medical sutures as shown in FIG. 21A. The loaded needles were sterilized by ethylene oxide gas. The cylinders and sutures were injected into the dorsal subcutaneous space of male Sprague Dawley rats with starting weights of 100-124 g (Envigo, Frederick, Md. USA). Animals were euthanized at 7 and 28 days and the skin surrounding the injection sites were dissected. Pellet drug content at each time point was calculated from in-situ image analysis, confirmed by HPLC, and was plotted as cumulative drug release from the cylinders (FIG. 21C).

[3] = Coating retention / drug release from coated substrates in 100% FBS at 37 C, HPLC; assay type: physicochemical
Method: Compound 1 was drop coated with the same total amount of compound 1 from an organic solution (acetone) onto SIBS films, Dacron films, and fibrous Dacron meshes, and drug release was carried out in 100% FBS at 37 C. The coating was extracted from the substrates at different time points and was plotted as a percentage of coating retained over time (FIG. 4).
Substrates coated with Compound 1 by drop coating or spray coating were incubated in fetal bovine serum (FBS) to determine the amount of Compound 1 retained over time. Each coated substrate was placed in a glass vial containing 4 mL FBS and incubated at 37° C. on a rotating platform. After 1 to 4 days, the remaining coating was extracted and was determined by HPLC (FIG. 9). The amount of Compound 1 retained following 1-day incubation in FBS ranged from 15 to 100% of the initial amount loaded and roughly correlated with thickness (total loading) of the coating.
Drug release was carried out in 100% FBS and agitation at 37 C with buffer changes and was monitored by HPLC.

[4] = Drug release profiles of heat press versus spray coated surface coatings; assay type: physicochemical; settings: similar drug densities (8.2-8.3 μg/mm^2)
Method: Drug release profiles from Compound 1 surface coatings with similar drug densities (8.2-8.3 μg/mm^2) formed from the heat press process and spray coating process were similar (FIG. 16B), confirming that drug release is a material property and not influenced by coating technique.

[5] = Drug release from coated surfaces and extruded cylinders in PBS at 37 C, monitored by HPLC; assay type: physicochemical
Description: As stated herein, “t50” is the time at which 50% of the releasable drug has been released from a surface coating or drug depot of the disclosure. Time t10 is, correspondingly, the time at which 10% of the releasable drug has been released from a surface coating or drug depot of the disclosure. When the release curve is perfectly linear, t10=⅕ of t50. When there is an initial burst of released drug, t10 is much less than ⅕ of t50. In the compositions and methods of the disclosure t10 can be equal to or greater than 1/10 of t50. Drug release from a surface coating, drug depot, or compound of the disclosure can be measured at 37° C. in 100% bovine serum, or at 37° C. in PBS (phosphate buffered saline), as described in Example 1.
Different substrates including poly(styrene-block-isobutylene-block-styrene) (SIBS) films, titanium coupons, and fibrous Dacron (polyethylene terephthalate) meshes (FIG. 2A) were coated with compound 1 from acetone by drop coating (FIG. 2B) forming an amorphous (glassy) coating. […] The bottom of a glass vial was coated with compound 1 and dexamethasone from dichloromethane (DCM) using the drop coating method.
Compound 2 was dissolved in DCM and was drop coated onto the bottom of a glass vial and solvent was evaporated to form the surface coating. Drug release was carried out in PBS at 37 C with buffer changes and was monitored by HPLC.
Compound 3 was dissolved in DCM and was drop coated onto the bottom of a glass vial and solvent was evaporated to form the surface coating. Drug release was carried out in PBS at 37 C with buffer changes and was monitored by HPLC.
Compound 1 was formed into cylinders by heat extrusion from the intermediate glassy state by pre-melting compound 1 prior to extrusion. In vitro drug release was carried out in PBS at 37 C and drug release was quantified by HPLC. […] The cylinders can be used as a drug depot within a medical device or injected adjacent to the medical device to release dexamethasone.

[6] = In vitro drug release profiles from coated discs; assay type: physicochemical; settings: coated discs (FIG. 18B)
[7] = system: device related foreign body reaction in the rat subcutaneous model; assay: Rat study of coated substrates, morphometric image analysis of CD68 stained cross-sections; assay type: in vivo, female Wistar rats; settings: spray coated thin films or drop coated discs, days 3 and 7, compared to non-coated substrates
Method: Compound 1 was dissolved in acetone and spray coated onto thin films of a polymeric substrate or drop coated onto discs of a different polymeric substrate. Both coatings were dried at ambient conditions over night and sterilized using Ethylene oxide (ETO) gas. Coated substrates were then implanted into the dorsal subcutaneous space in female Wistar rats with starting weights of 250-290 g. Animals were euthanized at the peak of inflammatory phase in days 3 and 7. The cells in the surrounding area of both substrates were assessed by morphometric image analysis on cross-section of excised substrates with associated tissue that were stained for CD68 (inflammatory cell marker), ASMA (fibroblast marker) and DAPI ([…]). The number of recruited CD68 positive cells were reduced in response to both substrates coated with compound 1 compared to non-coated substrates. Thus, compound 1 suppresses inflammation in device related foreign body reaction and fibrosis in the rat subcutaneous model regardless of coating method or substrate.

[8] = system: skin surrounding the injection sites; assay: Rat study with spray coated substrates injected into the dorsal subcutaneous space; assay type: in vivo, male SD rats; settings: highest coating amount (23.3 μg dexamethasone), day 14
Method: Coatings of Compound 1 in various dexamethasone amounts (1.4-23.3 μg) were spray coated onto substrates as described in Example 4 and sterilized by ETO gas. Coated substrates were injected into the dorsal subcutaneous space of male SD rats with starting weights of 100-124 g (Envigo, Frederick, Md. USA). Animals were euthanized at 0, 3, 7 and 14 days and the skin surrounding the injection sites dissected. Coating remaining at each time point was quantified by HPLC.

device related fibrosis = assay: Rat study of coated polymeric discs, collagenous capsule wall thickness (Masson's Trichrome); assay type: in vivo, female Wistar rats; settings: drop coated discs, subcutaneous, day 7 and day 21, versus non-coated implants
Description: The coatings were dried at ambient conditions over night and sterilized using Ethylene oxide (ETO) gas. Coated substrates were then implanted into the dorsal subcutaneous space in female Wistar rats with starting weights of 250-290 g. Animals were euthanized at day 7 (inflammatory phase) and day 21 (fibrotic phase) to assess the tissue response to coated versus non-coated implants. The thickness of the collagenous capsule wall surrounding the implant was quantified by morphometric image analysis on cross-section of excised capsules with associated tissue that were stained with Masson's Trichrome.

Compound: C[C@@H]1C[C@H]2[C@@H]3CCC4=CC(=O)C=C[C@]4(C)[C@@]3(F)[C@@H](O)C[C@]2(C)[C@@]1(O)C(=O)COC(=O)OCCOCCOCCOC(=O)OCC(=O)[C@@]1(O)[C@H](C)C[C@H]2[C@@H]3CCC4=CC(=O)C=C[C@]4(C)[C@@]3(F)[C@@H](O)C[C@@]21C [Compound 1, dexamethasone-triethylene glycol-dexamethasone]
- Coating purity pre- and post-ETO sterilization ([1]; fibrous Dacron meshes, HPLC): no changes
- Drug release pre- and post-ETO sterilization ([1]; release in PBS at 37 C): no changes in release properties
- Cumulative drug release from the cylinders in vivo [2]: sustained dexamethasone release
- Coating retained over time ([3]; drop coated on SIBS and Dacron films (thicker, lower surface area coating)): lower and longer sustained release
- Coating retained over time ([3]; drop coated on fibrous Dacron mesh (thin, high surface area coating)): quick release of coating from the surface
- Drug release profiles, heat press process versus spray coating process [4]: similar
- Drug release mechanism from extruded cylinders ([5]; cylinders extruded with 23G and 30G nozzles, PBS at 37 C): surface erosion
- Drug release from the coated surfaces ([5]; drop coated on SIBS, titanium, Dacron mesh, glass, PBS at 37 C): slow, sustained drug release
- In vitro drug release profile [6]: sustained release
- Number of recruited CD68 positive cells [7]: reduced
- Skin observation around the coated substrate [8]: Skin bleaching was noted
- Capsule wall diameter (fibrotic layer thickness) (device related fibrosis): statistically thinner

Compound: dexamethasone-hexane-dexamethasone [Compound 4]
- Capsule wall diameter (fibrotic layer thickness) (device related fibrosis): statistically thinner

- Cumulative drug release from the coated surface ([5]; drop coated from DCM onto glass vial, PBS at 37 C with buffer changes): consistent drug release
Compound: hydrocortisone-triethylene glycol-hydrocortisone [Compound 2]
